pKi: −log10 of the molar value. Structures can show the parent of a compound that is named as a salt. Where a SMILES comes first, the peptide text is derived from it. The star is where a group is joined. Cbz = O=C(OCc1ccccc1)*

One series concerns the target T1, caspase-1 (Homo sapiens, UniProt P29466).
T1 sequence (P29466 120-297 limits assumed): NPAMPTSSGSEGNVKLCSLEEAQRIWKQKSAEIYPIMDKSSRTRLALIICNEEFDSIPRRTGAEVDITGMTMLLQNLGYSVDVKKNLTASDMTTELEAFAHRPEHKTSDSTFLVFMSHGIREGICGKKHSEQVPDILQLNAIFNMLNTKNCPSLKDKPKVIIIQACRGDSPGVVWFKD
T1 sequence (P29466 317-404 limits assumed): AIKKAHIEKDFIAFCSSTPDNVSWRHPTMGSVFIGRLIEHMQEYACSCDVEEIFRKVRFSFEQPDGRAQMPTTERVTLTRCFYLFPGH
The note with it: cited from earlier work.

The test system of the next series is HeLa cell mitochondria. To be noted: at 5 μM; cited from earlier work.
The conditions of series [1]: in neuron culture medium at 37° C.; cited from earlier work.
The next series has as its target T2, calpain II (Homo sapiens, UniProt P17655).
T2 sequence (P17655 1-700): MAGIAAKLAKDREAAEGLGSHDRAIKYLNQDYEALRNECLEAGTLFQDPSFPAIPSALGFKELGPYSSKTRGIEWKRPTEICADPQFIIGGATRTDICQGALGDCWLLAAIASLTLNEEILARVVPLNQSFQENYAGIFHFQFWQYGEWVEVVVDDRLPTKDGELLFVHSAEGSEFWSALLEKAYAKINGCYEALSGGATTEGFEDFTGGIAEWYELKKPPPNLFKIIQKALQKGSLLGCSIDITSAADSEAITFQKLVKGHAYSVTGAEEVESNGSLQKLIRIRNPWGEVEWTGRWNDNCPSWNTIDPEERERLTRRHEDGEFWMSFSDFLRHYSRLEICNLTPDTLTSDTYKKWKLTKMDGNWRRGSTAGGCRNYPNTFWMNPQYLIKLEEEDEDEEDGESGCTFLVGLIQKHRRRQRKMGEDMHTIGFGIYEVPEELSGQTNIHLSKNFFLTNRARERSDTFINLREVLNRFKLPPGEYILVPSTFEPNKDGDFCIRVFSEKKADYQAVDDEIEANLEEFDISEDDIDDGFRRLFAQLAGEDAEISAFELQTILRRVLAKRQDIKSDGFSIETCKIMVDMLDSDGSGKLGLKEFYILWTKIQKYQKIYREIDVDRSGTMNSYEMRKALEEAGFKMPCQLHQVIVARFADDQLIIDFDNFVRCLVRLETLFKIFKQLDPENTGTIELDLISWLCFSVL
T2 sequence (P04632 1-268 partner): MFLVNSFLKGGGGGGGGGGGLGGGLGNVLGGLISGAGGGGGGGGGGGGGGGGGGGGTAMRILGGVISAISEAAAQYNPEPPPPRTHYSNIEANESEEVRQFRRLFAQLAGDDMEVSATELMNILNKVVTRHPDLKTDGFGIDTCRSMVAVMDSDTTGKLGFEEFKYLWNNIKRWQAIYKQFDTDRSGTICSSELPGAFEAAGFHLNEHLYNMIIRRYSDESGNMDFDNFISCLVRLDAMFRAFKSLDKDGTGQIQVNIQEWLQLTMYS
The note with it: cited from earlier work.

In the next series the target is cathepsin L (Homo sapiens, UniProt P07711). To be noted: cited from earlier work.
The test system of series [2] is whole blood samples. Nature of the series: 18S DNA duplex real time PCR assay, increase of DNA in plasma of stored blood, example 5. The class given is cell-based, human. The note with it: 20 μM caspase inhibitor in whole blood; storage at RT. On the technique in general: In qPCR the cycle at which signal appears reflects the starting amount.
Series [3] has as its system whole blood samples. Nature of the series: DNA size distribution by chip gel electrophoresis (blood cell stability/DNA release). The class given is cell-based, human. The note with it: 20 μM in 10 ml K2E blood; day 3 and day 7. The protocol: To separate the blood plasma from the whole blood, the blood samples were centrifuged for 15 min at 5000 rpm, and the obtained plasma samples were again centrifuged for 10 min at 16.000×g at 4° C.
The circulating, extracellular nucleic acids were purified from the obtained plasma samples using the QIAamp® Circulating NA Kit (QIAGEN, according to the handbook). In brief: • 10 ml sample input; • lysis: 1 ml Proteinase K and 8 ml Buffer ACL (QIAGEN) • binding: 18 ml Buffer ACB (QIAGEN) • wash-steps: unchanged and according to handbook • elution in 60 μl Buffer AVE (QIAGEN)
1.3.1 Measurement of the blood cell stability/DNA release by the determination of DNA size distribution using a chip gel electrophoresis (2100 Bioanalyzer; Agilent Technologies; Inc., USA) according to manufacturer's instruction (see handbook Agilent DNA 7500 and DNA 12000 Kit Guide), but 1.5 μl instead of 1 μl sample were transferred to the wells.
Each tested caspase inhibitor was added to whole blood samples (20 μM end concentration in 10 ml blood; blood was collected into Vacutainer K2E Tubes; BD). The whole blood sample was processed as described in section 1 (plasma preparation and nucleic acid isolation).
The eluted circulating cell-free DNA was separated by size using chip gel electrophoresis (for details on the method see above). […]

For a further series, the system named is cells. The note with it: even at extremely high concentrations; cited from earlier work.
Another series has as its target T3, caspase-3 (Homo sapiens, UniProt P42574).
T3 sequence (P42574 29-175 limits assumed): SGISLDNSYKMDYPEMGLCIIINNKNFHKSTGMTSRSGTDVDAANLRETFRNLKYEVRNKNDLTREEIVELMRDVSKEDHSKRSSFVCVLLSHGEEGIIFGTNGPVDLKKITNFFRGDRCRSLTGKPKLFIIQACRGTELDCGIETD
T3 sequence (P42574 176-277 limits assumed): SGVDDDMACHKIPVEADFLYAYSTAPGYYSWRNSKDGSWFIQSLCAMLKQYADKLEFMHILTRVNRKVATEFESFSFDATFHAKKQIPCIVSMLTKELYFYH
The note with it: cited from earlier work.

The test system of a further series is white blood cells. Put plainly: 18S rDNA qPCR (66 bp / 500 bp): release of genomic DNA into plasma of stored stabilized blood, examples 1-4. The class given is cell-based, human. Here is the method: Blood from two different donors was collected into 10 ml K2 EDTA tubes (BD). 4.5 ml of the respectively collected blood was mixed with 0.9 ml of two different stabilization solutions A and B. Said stabilization solutions contained (per ml of stabilization solution):
A: 34.2 mg K2 EDTA and 0.15 g or 0.18 g butanamide in water When using stabilization solution A, the following final concentration in the blood/stabilization mixture was obtained: 7.2 mg K2 EDTA/ml and 2.5% (w/v) or 3% (w/v) butanamide. […] When using stabilization solution B, the following final concentration in the blood/stabilization mixture was obtained: 7.2 mg K2 EDTA/ml, 3% (w/v) butanamide and 1 μM Quinoline-Val-Asp-CH2-OPH (caspase inhibitor).
All stabilized blood samples were set up in triplicates per condition and test time point. At time point 0 (reference), immediately after mixing the stabilization solution and blood, plasma was generated and the circulating extracellular DNA was extracted. The residual stabilized blood sample was stored for three days and six days at room temperature.
Plasma was generated from the stabilized and unstabilized (EDTA) blood samples by inverting the blood containing tubes for four times. Then, the tubes were centrifuged for 10 minutes at 1900×g at 4° C. 2.5 ml of the plasma fraction was transferred into a fresh 15 ml falcon tube and centrifuged for 10 minutes at 16.000×g at 4° C. 2 ml of the respectively cleared plasma was used for extracellular nucleic acid isolation using the QIAamp circulating nucleic acid kit (QIAGEN) according to the manufacturer's instructions.
The isolated extracellular DNA was analyzed using two different qPCR assays, targeting different fragment lengths of the 18S ribosomal DNA:
18S ribosomal DNA: 66 bp amplicon 18S ribosomal DNA: 500 bp amplicon
Cycle threshholds of the individual samples were translated into amount of gDNA in the eluate, according to a gDNA standard curve. The gDNA amount of the storage time points was compared to the time zero gDNA level from the same donor and is shown as fold increase in the figures. […]

Chain of cathepsin L (P07711 114-333, species assumed): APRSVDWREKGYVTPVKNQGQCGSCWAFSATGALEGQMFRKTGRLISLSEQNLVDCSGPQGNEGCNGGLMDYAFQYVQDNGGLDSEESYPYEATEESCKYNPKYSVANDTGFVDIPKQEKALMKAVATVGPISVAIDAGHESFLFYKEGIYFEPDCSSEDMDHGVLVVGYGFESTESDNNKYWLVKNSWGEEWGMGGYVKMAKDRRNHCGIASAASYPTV

“Ac-Tyr-Val-Ala-Asp-CMK [Caspase-1 Inhibitor II]”: the negative logarithm of the Ki (pKi) with caspase-1 was 9.12.
As for `OC(CN1CCNCC1)Cn1c2ccc(Br)cc2c2cc(Br)ccc21` (racemic) [Bax Channel Blocker, (±)-1-(3,6-Dibromocarbazol-9-yl)-3-piperazin-1-yl-propan-2-ol, bis TFA], the “inhibition of Bid-induced cytochrome c release” value in the series with HeLa cell mitochondria is recorded as “cyctochrome c release from HeLa cell mitochondria (~80%”.
As to `N=c1sc2c(n1CC(=O)c1ccc([N+](=O)[O-])cc1)CCCC2` [Pifithrin-α, p-Nitro], in series [1], the t½ result is given as “biological systems (t½ = 8 h in neuron culture medium at 37° C.)”.
Consider `CC(C)C(NC(=O)OCc1ccccc1)C(=O)NC(C=O)Cc1ccccc1` (stereo not drawn) [Calpain Inhibitor III, Z-Val-Phe-CHO] (Cbz-Val-Phe-aldehyde; configuration not given here), for which, on calpain II, the pKi was 8.10.
With `CC(C)C[C@H](NC(=O)OCc1ccccc1)C(=O)N[C@@H](CC(C)C)C(=O)N[C@@H](Cc1ccc(O)cc1)C(=O)CF` [Calpain Inhibitor IV, Z-Leu-Leu-Tyr-CH2F] (HELM PEPTIDE1{[O=C(OCc1ccccc1)[*:2]].L.L.Y.[FC[*:1]]}$$$$V2.0), the k2 was 680,000 M−1s−1) on cathepsin L and 28,900 M−1s−1). Also acts as an inhibitor of cathepsin L (k2 = at calpain II (irreversible inhibitor).
Consider `CC(C)C(NC(=O)c1ccc2ccccc2n1)C(=O)NC(CC(=O)O)C(=O)COc1c(F)cccc1F` (stereo not drawn) [Q-VD-OPh, Quinoline-Val-Asp-CH2-OPH], for which the “increase of DNA from day 0 to day 3 or 7” value in the series on whole blood samples [2] is recorded as “reduced increase of DNA”. The “ladder-like pattern of bands (release and fragmentation of genomic DNA) compared to controls” value in the series with whole blood samples [3] was “significantly reduced ladder-like patterns”. Further, in the series with cells, the toxicity to cells entry is “not toxic to cells”.
With “Ac-Ala-Ala-Val-Ala-Leu-Leu-Pro-Ala-Val-Leu-Leu-Ala-Leu-Leu-Ala-Pro-Asp-Glu-Val-Asp-CHO (Ac-AAVALLPAVLLALLAPDEVD-aldehyde; SMILES CC(=O)N[C@@H](C)C(=O)N[C@@H](C)C(=O)N[C@H](C(=O)N[C@@H](C)C(=O)N[C@@H](CC(C)C)C(=O)N[C@@H](CC(C)C)C(=O)N1CCC[C@H]1C(=O)N[C@@H](C)C(=O)N[C@H](C(=O)N[C@@H](CC(C)C)C(=O)N[C@@H](CC(C)C)C(=O)N[C@@H](C)C(=O)N[C@@H](CC(C)C)C(=O)N[C@@H](CC(C)C)C(=O)N[C@@H](C)C(=O)N1CCC[C@H]1C(=O)N[C@@H](CC(=O)O)C(=O)N[C@@H](CCC(=O)O)C(=O)N[C@H](C(=O)N[C@H](C=O)CC(=O)O)C(C)C)C(C)C)C(C)C) [Caspase-3 Inhibitor I, Cell-Permeable]”, the pKi with caspase-3 is greater than 9.00.
Regarding `CCCC(N)=O` [butanamide], the “stabilization capabilities compared to DMAA” value in the series with white blood cells (Example 2, 2.5, 3, 3.5% (w/v) butanamide with 1 μM caspase inhibitor and EDTA vs 5% DMAA) is “at least comparable stabilization capabilities to DMAA”. Further, the “stabilization capabilities compared to the stabilization solution comprising DMAA” value in the series on white blood cells (Example 3, 0.5, 1.5, 2% butanamide in combination with 2.5, 1.5, 1% DMPA, 1 μM caspase inhibitor, EDTA) was “comparable stabilization capabilities”. Besides, the “increase in 18S rDNA” value in the series on white blood cells (Example 4, 0.5, 1.5, 2.5% (w/v) butanamide with 1 μM caspase inhibitor and 7.2 mg K2EDTA/ml) is reported as “significantly reduced increase in 18S rDNA”.
Take “Ac-Ala-Ala-Val-Ala-Leu-Leu-Pro-Ala-Val-Leu-Leu-Ala-Leu-Leu-Ala-Pro-Tyr-Val-Ala-Asp-CHO (Ac-AAVALLPAVLLALLAPYVAD-aldehyde; SMILES CC(=O)N[C@@H](C)C(=O)N[C@@H](C)C(=O)N[C@H](C(=O)N[C@@H](C)C(=O)N[C@@H](CC(C)C)C(=O)N[C@@H](CC(C)C)C(=O)N1CCC[C@H]1C(=O)N[C@@H](C)C(=O)N[C@H](C(=O)N[C@@H](CC(C)C)C(=O)N[C@@H](CC(C)C)C(=O)N[C@@H](C)C(=O)N[C@@H](CC(C)C)C(=O)N[C@@H](CC(C)C)C(=O)N[C@@H](C)C(=O)N1CCC[C@H]1C(=O)N[C@@H](Cc1ccc(O)cc1)C(=O)N[C@H](C(=O)N[C@@H](C)C(=O)N[C@H](C=O)CC(=O)O)C(C)C)C(C)C)C(C)C) [Caspase-1 Inhibitor I, Cell-Permeable]”: the pKi with caspase-1 was 9.00.

As a reminder, the pKi is the negative decadic logarithm of the Ki, by convention in mol/L.

These data come from patent US20160281133A1, “STABILIZATION AND ISOLATION OF EXTRACELLULAR NUCLEIC ACIDS” (QIAGEN GMBH, priority 2013, published 2016).
